Measured values from US8558056B2, “LysM receptor-like kinases to improve plant defense response against fungal pathogens” (The Curators of the University of Missouri, priority 2006, dated 2013).

Assays:
[1] = system: wild-type Col-0 gene expression (chitooligosaccharide-responsive genes, CRGs); assay: Affymetrix ATH1 whole genome array, response to chitooctaose in wild-type plants; assay type: in vivo, Arabidopsis thaliana
Procedure: (§1) More particularly, Arabidopsis seedlings were grown hydroponically as described by Ramonell et al., 2005. Fourteen-day old seedlings were treated with chitooctaose (Sigma, St. Louis, Mo., USA) at a concentration of 1 μM or with distilled water (as a control) for 30 minutes. To test flagellin-responsive genes, 14-day old seedlings were also treated with the flagellinderived flg22 peptide (dissolved in dimethyl sulfoxide, DMSO) at a final concentration of 10 μM or with an equivalent amount of DMSO (as a control) for 30 minutes. To test other defense pathways, Arabidopsis seedlings were also treated for 24 hours with 5 mM SA, 100 μM MeJA, and 0.5 mM ACC (all obtained from Sigma, St. Louis, Mo., USA) and dissolved in 0.1% ethanol. The control plants were similarly treated with an equivalent amount of ethanol. After treatment, the seedlings were collected and frozen in liquid nitrogen for RNA isolation.
(§2) Total RNA was isolated using the Trizol Reagent according to the manufacturer's instructions (Invitrogen, Carlsbad, Calif.). The isolated RNA was further purified using Qiagen RNeasy Mini Columns according to the manufacturer's instruction (Qiagen, Valencia, Calif., USA) and treated with Turbo™ DNase (Ambion, Austin, Tex., USA). For semi-quantitative RT-PCR or quantitative 17 PCR, cDNA was synthesized using M-MLV reverse transcriptase according to the manufacturer's instructions (Promega, Madison, Wis., USA).
(§3) Gene expression profiles in the AtLysM RLK1 mutant in response to chitooctaose were studied using the Affymetrix Arabidopsis Whole Genome Array ATH1 (with ˜22000 genes), with wild-type plants as a control. […] A row represents a gene and each column represents a sample. WT-8mer=wild-type Col-0 treated with chitooctaose; WT-water=wild-type Col-0 treated with distilled water; Mu-water=the AtLysM RLK1 mutant treated with distilled water; Mu-8mer=the AtLysM RLK1 mutant treated with chitooctaose. The color bar below the cluster picture: the red color indicates the expression level of a gene is above the mean expression of the gene across all samples; the green color indicates expression lower than the mean.

[2] = system: AtLysM RLK1 mutant gene expression (chitooligosaccharide-responsive genes, CRGs); assay: Affymetrix ATH1 whole genome array, response to chitooctaose in the AtLysM RLK1 mutant; assay type: in vivo, Arabidopsis thaliana
Procedure: as §1, §2
The AtLysM RLK1 insertion mutant (096F09) used in the current work was generated in the context of the GABI-Kat program and provided by Bernd Weisshaar (MPI for Plant Breeding Research, Cologne, Germany). See Shibuya et al., 2001. The homozygous plants were identified by genotyping using the following gene-specific primers: […]
as §3

[3] = system: selected CRGs (MPK3, WRKY22, WRKY29, WRKY33, WRKY53); assay: Semi-quantitative RT-PCR of selected CRGs after chitooctaose; assay type: in vivo, Arabidopsis thaliana; conditions: chitooctaose or water for 30 minutes; mutant vs wild type
Procedure: To test whether non-leguminous LysM RLKs may be involved in the perception of chitooligosaccharides and the subsequent induction of downstream genes that have been implicated in fungal defense, T-DNA insertion mutants were obtained for all five LysM RLK genes (i.e., At1g51940, At2g23770, At2g33580, At3g01840, and At3g21630) in Arabidopsis. The gene At3g21630 (SEQ ID. No. 3) is also termed AtLYK1 or AtLysM RLK1. Homozygous mutants were then treated with a purified chitooligosaccharide (chitooctaose) and the expression levels of known CRGs, such as MPK3 (At3g45640, SEQ ID. No. 8), WRKY22 (At4g01250, SEQ ID. No. 9), WRKY29 (At4g23550, SEQ ID. No. 10), WRKY33 (At2g38470, SEQ ID. No. 11), and WRKY53 (At4g23810, SEQ ID. No. 12), were measured.
More particularly, Arabidopsis seedlings were grown hydroponically as described by Ramonell et al., 2005. […]
Total RNA was isolated using the Trizol Reagent according to the manufacturer's instructions (Invitrogen, Carlsbad, Calif.). […] For semi-quantitative RT-PCR or quantitative 17 PCR, cDNA was synthesized using M-MLV reverse transcriptase according to the manufacturer's instructions (Promega, Madison, Wis., USA). […]
Both the mutant (Mu) and wildtype (WT) plants were treated with purified chitooctaose or water (as a control) for 30 minutes and gene expression of the selected CRGs was detected using semi-quantitative RT-PCR. […]

[4] = system: selected CRGs (LjMPK3, LjWRKY22, LjWRKY33, LjWRKY53); assay: Semi-quantitative RT-PCR of selected CRGs in Lotus japonicus Nod signal receptor mutants; assay type: in vivo; conditions: chitooctaose 1 μM, 30 minutes; wild type Gifu as comparison
Procedure: PCR reactions were conducted using Taq polymerase (Promega, Madison, Wis., USA) under the following conditions: 94° C., 3 minutes; 94° C., 30 seconds; 55° C., 30 seconds; 72° C., 1.5 minutes; 25 cycles; 72° C., 3 minutes. The corresponding CRG genes in Lotus japonicus were identified by blasting the cDNA sequences of the above Arabidopsis CRGs (and also actin-2) against the TIGR Lotus japonicus Gene Index. The closest hits were chosen and arbitrarily named after their Arabidopsis counterparts with the prefix Lj (standing for Lotus japonicus). The following primer pairs were designed to detect these genes:
LjActin-2 was used as an internal control.
LysM RLK NFR1 and NFR5 Nod signal receptors specifically recognize a lipochitin molecule with a back-bone of 4-5 units of N-acetyl-D-glucosamine. For review, see Stacey et al. 2006. […] In more details, both the wild type (Gifu) and the Nod signal receptor mutants nfr1-1 and nfr5-1 were treated with chitooctaose for 30 minutes at a concentration of 1 μM or with water (as a control). The selected CRGS were detected using semi-quantitative RT-PCR. LjActin-2 was used as an internal control.

[5] = system: Arabidopsis LysM RLK genes; assay: DNA microarray (Affymetrix 24K chip) of plants sprayed with chitin; assay type: in vivo, Arabidopsis thaliana; conditions: leaves sprayed with chitin (100 μM)+0.2% Tween-20
Procedure: A total of five LysM receptor-like kinase genes were identified in Arabidopsis from the studies described in Example 1. The Genbank numbers of these five genes are AtLYK1 (GenBank accession #At3g21630), AtLYK2 (GenBank accession # At3g01840), AtLYK3 (GenBank accession #At1g51940), AtLYK4 (GenBank accession # At2g23770), AtLYK5 (GenBank accession #At2g33580), and, which are designated as SEQ ID. Nos. 3-7, respectively. A DNA microarray experiment was performed by treating Arabidopsis plants with chitin. Leaves were treated by spraying with chitin (100 μM)+0.2% Tween-20. The Affymetrix 24K Arabidopsis genome chip was utilized according to the manufacturer's instructions for this test. […] The data implicate these genes in plant chitin response.

[6] = system: soybean LysM RLK genes; assay: Expression analysis of GmLysM receptor-like kinases in chitin-treated leaves; assay type: in vivo; conditions: leaves sprayed with chitin (100 μM)+0.2% Tween-20
Procedure: Soybean genotypes used for mapping of soybean QTLs for white mold resistance included Corsoy 79 and Dassel. […] Finally, as was the case with Arabidopsis, some of the soybean LysM RLK genes are induced upon treatment of soybean with chitin, as confirmed by the results shown in FIG. 20. Leaves were treated by spraying with chitin (100 μM)+0.2% Tween-20.

[7] = system: transcription factors; assay: qRT-PCR of transcription factors after chitin treatment; design: species or system Arabidopsis thaliana; conditions: in vivo
Procedure: Based on the genome-wide gene expression studies using microarrays, quantitative reverse transcriptase-polymerase chain reaction (qRT-PCR) was conducted to identify over 120 different transcription factors in Arabidopsis thaliana whose expression is enhanced by chitin treatment. Many of these transcription factors are known to be involved in fungal pathogen response. […] Each of these transcription factors is a potential target for genetic manipulation in order to enhance disease resistance. The results of this study are described in greater details in Libault et al., 2007, which is hereby expressly incorporated by reference.

[8] = system: AtLysM RLK1 gene; assay: RT-PCR of AtLysM RLK1 gene expression after elicitor treatment; assay type: in vivo, Arabidopsis thaliana; conditions: seedlings, chitooctaose 1 μM, 30 minutes
Procedure: as §1
These two primers were also used to detect the expression of the AtLysM RLK1 gene via RT-PCR. The other primers used to detect the transcript 5′ of the insertion site were as follows:
The expression pattern of the AtLysM RLK1 gene was also studied. […]

[9] = system: Alternaria brassicicola; assay: Pretreatment before inoculation with Alternaria brassicicola (lesion size, spore production); assay type: in vivo, Arabidopsis thaliana
Source text: The susceptibility appeared to be less than that observed in NahG plants, which express salicylate hydrolase, preventing the accumulation of salicylic acid, and are therefore very susceptible to the fungal pathogen (FIG. 13A). […] Arrows indicate sites where conidiophores are forming. All photographs were taken six days after inoculation. Bar=0.1 mm. 4-week-old plants were also inoculated with the necrotrophic fungus Alternaria brassicicola. Three days after inoculation, the mutant developed slightly bigger lesions than the wild-type plants, as measured by average diameter of the lesions (FIGS. 13C and 13D). In agreement with this, the mutant plants also produced more spores per lesion than the wild-type plants (FIG. 13E).
(§4) To test the specificity of AtLysM RLK1 in fungal disease resistance, the response of the mutant to the bacterial pathogen Pseudomonas syringae pv. Tomato DC3000 was also examined. […] WT=wild-type Col-0; Mu=the AtLysM RLK1 mutant. CSC=crab shell chitin, 8mer=chitooctaose, and water=distilled water. Empty columns=WT Col-0 and solid black columns=the AtLysM RLK1 mutant. Asterisks indicate statistically significant differences between the mutant and wild-type plants (P<0.05). Error bars=standard error. Each experiment was repeated at least twice with similar results.

[10] = system: Pseudomonas syringae pv. tomato DC3000; assay: Pretreatment before inoculation with Pseudomonas syringae pv. tomato DC3000 (bacterial growth); assay type: in vivo, Arabidopsis thaliana
Source text: as §4

[11] = pretreatment of AtLysM RLK1 mutant plants
[12] = pretreatment of wild-type plants

Molecule: CC(=O)N[C@H]1[C@H](O[C@H]2[C@H](O)[C@@H](NC(C)=O)[C@H](O[C@H]3[C@H](O)[C@@H](NC(C)=O)[C@H](O[C@H]4[C@H](O)[C@@H](NC(C)=O)C(O)O[C@@H]4CO)O[C@@H]3CO)O[C@@H]2CO)O[C@H](CO)[C@@H](O[C@@H]2O[C@H](CO)[C@@H](O[C@@H]3O[C@H](CO)[C@@H](O[C@@H]4O[C@H](CO)[C@@H](O[C@@H]5O[C@H](CO)[C@@H](O)[C@H](O)[C@H]5NC(C)=O)[C@H](O)[C@H]4NC(C)=O)[C@H](O)[C@H]3NC(C)=O)[C@H](O)[C@H]2NC(C)=O)[C@@H]1O (some centres unmarked) [chitooctaose]
- number of down-regulated genes in wild-type plants ([1]; 1.5 fold, P<0.05): 227 genes
- number of up-regulated genes in wild-type plants ([1]; 1.5 fold, P<0.05): 663 genes
- number of genes that responded more than 1.5 fold (P<0.05) to chitooctaose elicitation ([1]; in both the wild-type and mutant plants, 30 minutes after the treatment): 909 genes
- number of genes with a change in transcript levels in wild-type plants ([1]; out of the 909 genes, 1.5 fold, P<0.05): 890 genes
- number of down-regulated genes in the mutant ([2]; AtLysM RLK1 mutant): 17 genes
- number of up-regulated genes in the mutant ([2]; AtLysM RLK1 mutant): 16 genes
- number of genes responsive in the mutant ([2]; out of 909, AtLysM RLK1 mutant): 33 genes
- induction of the selected CRGs in the AtLysM RLK1 insertion mutant [3]: almost completely blocked the induction
- induction of the selected CRGs in L. japonicus nfr1-1 and nfr5-1 mutants [4]: did not block the induction

Molecule: chitin
- increase in transcription of At2g23770 [5]: 2 fold
- increase in transcription of At2g33580 [5]: 13 fold
- increase in transcription of At3g21630 [5]: 2 fold
- induction of soybean LysM RLK genes [6]: induced
- number of transcription factors whose expression is enhanced by chitin treatment [7]: over 120 transcription factors

Molecule: chitooligosaccharides
- share of CRGs whose regulation is blocked by the AtLysM RLK1 mutation ([2]; AtLysM RLK1 mutant vs wild type): ~98%
- induction of the AtLysM RLK1 gene [8]: induced
- resistance after pretreatment, A. brassicicola [9, 11]: did not enhance resistance
- disease symptoms (lesion size and spore production) after A. brassicicola inoculation [9, 12]: reduced disease symptoms
- resistance after pretreatment, P. syringae pv. tomato DC3000 [10, 11]: did not enhance resistance
- growth of the bacterial pathogen P. syringae pv. tomato DC3000 [10, 12]: inhibited the growth
